Source: paper PMC8444262, “α-Mangostin Induces Apoptosis and Inhibits Metastasis of Breast Cancer Cells via Regulating RXRα-AKT Signaling Pathway” (Frontiers in Pharmacology, 2021)

Biological target: T1, RXRα (Homo sapiens, UniProt P19793)
T1 construct: gene RXRA; RXRα-LBD
T1 sequence (P19793 198-462): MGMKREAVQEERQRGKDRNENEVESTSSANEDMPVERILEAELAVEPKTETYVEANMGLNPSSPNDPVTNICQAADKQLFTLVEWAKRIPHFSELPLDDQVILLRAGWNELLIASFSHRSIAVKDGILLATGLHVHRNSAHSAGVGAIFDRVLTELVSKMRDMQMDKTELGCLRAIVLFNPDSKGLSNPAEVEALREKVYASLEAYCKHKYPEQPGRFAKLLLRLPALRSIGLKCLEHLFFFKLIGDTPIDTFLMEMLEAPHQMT
Test: SPR (Biacore S200, immobilized RXRα-LBD); supported by antagonism of 9-cis-RA in GAL4-RXRα-LBD reporter assay
Assay type: binding

COc1c(O)cc2oc3cc(O)c(CC=C(C)C)c(O)c3c(=O)c2c1CC=C(C)C [compound 3, α-Mangostin] gave a Kd of 39 µM.
